Experimental findings from patent US20210292807A1, “METHOD FOR TESTING ANTIMICROBIAL SUSCEPTIBILITY” (priority 2017, published 2021) are described below.

Values after ≈ are worked out from the molar mass of the structure shown.

Test [1] concerns Klebsiella isolates. The experiment in a line: Acoustic flow cytometry-assisted susceptibility test (FAST), MICFAST and S/NS, Klebsiella isolates. Type of test: cell-based, Klebsiella pneumoniae, Klebsiella oxytoca. The note with it: limited clinical screen concentrations. How it is done:
A 1 mL aliquot of bacterial suspension was centrifuged, washed and resuspended in 1 mL filtered Hank's Buffered Salt Solution (HBSS; comprising about 0.137 M NaCl, about 5.4 mM KCl, about 0.25 mM Na2HPO4, about 0.1 g Glucose, about 0.44 mM KH2PO4, 1.3 mM CaCl2), 1.0 mM MgSO4, about 1.3 mM CaCl2), 1.0 mM MgSO4, and about 4.2 mM NaHCO3) and diluted in series (e.g., in a 1:10 serial dilution) to a final 1:1000 dilution.
One μL (microliter) of SYTO 9 stain (e.g., ThermoFisher Scientific) working stock solution was added to the final dilution at a final concentration of 5 μM and incubated for 5 minutes before counting bacterial events by acoustic flow cytometer (AFC) (Attune, ThermoFisher, Eugene, Oreg., USA), which was used to prepare a standardised inoculum density for susceptibility testing.
(§1) An aliquot of bacterial suspension was added to 50 mL centrifuge tubes (Corning, N.Y.) containing 9 mL of pre-warmed (37° C.) filtered MHB to produce a final density of 5×10^5-1×10^6 bacteria per mL. This suspension was incubated at 37° C. with shaking at 100 RPM for 30 minutes to obtain an actively dividing culture. An aliquot of antibiotic working solution from the previously described dilution series (appropriate to the concentration tested) was then added to each tube before a further 30-minute incubation with shaking, during which time a microbroth dilution (MBD) plate was prepared for overnight incubation at 37° C. as previously described in Clinical and Laboratory Standards Institute (2015) Performance Standards for Antimicrobial Susceptibility Testing: Informational Supplement. CLSI document M100-S25. Clinical and Laboratory Standards Institute, 950, West Valley Road, Suite 2500, Wayne, Pa., 19087, USA.
One millilitre of bacterial suspension from each antibiotic concentration was harvested by centrifugation at 7800×g for 5 minutes, washed and diluted 1:10 in filtered HBSS in a light-impermeable microcentrifuge tube, then stained with SYTO 9 stain at a final concentration of 5 μM, and incubated for 5 min before AFC sampling. Hoechst 33342 dye (NucBlue, Thermo Fisher Scientific, Eugene, Oreg., USA) and a SYTO 9/propidium iodide (PI) combination (Thermo Fisher Scientific) were used in a series of replicate experiments.
The acoustic flow cytometer employed was Attune acoustic flow cytometer (Thermo Fisher Scientific), having installed therein a 488 nm blue laser with a 530/30 nm filter on the photomultiplier tube for measuring fluorescence of cells assayed. Alternatively, the Attune NxT acoustic flow cytometer (Thermo Fisher Scientific) can be employed. AFC was calibrated at the beginning of each acquisition session using fluorescently labelled size calibration beads, in accordance with the manufacturer's instructions (ThermoFisher Scientific). The AFC settings were as follows: Forward Scatter (FSC) voltage 3100, FSC threshold 4×1000 AND, blue laser 1 (BL1—530/30 nm) voltage 1900, BL1 threshold 1×1000 AND, high sensitivity, flow rate 25 μL/minute, and an acquisition volume of 125 μL. Acquisition was halted after either collection of 20,000 events across all gates, or after 3 minutes, with each sample acquired in technical triplicate.
Collected data was exported in the FCS 3.0 file format and analysed in Flow v10.0 (FlowJo LLC, Ashland, Oreg., USA) by a single user, blinded to the MIC results by BMD (MICBMD).
Subsequent to quantitative MICFAST determination, the acoustic flow cytometer data were re-analysed in silico to produce a limited sub-set for qualitative susceptibility determination. The six antibiotic dilutions (0 mg/L, 0.25 mg/L, 1 mg/L, 2 mg/L, 4 mg/L and 16 mg/L) most relevant to qualitative susceptibility assessment were used. In silico analysis was restricted to the first technical triplicate of each recorded sample. Gating strategies remained consistent, with the addition of a gate restricting analysis to only those events recorded in the first 60 seconds of acquisition.
On the technique in general: Flow cytometry measures light scatter and fluorescence of single cells or particles in a stream.

Test [2] has as its system Klebsiella isolates. Nature of the test: Broth microdilution MIC (MICBMD) of Klebsiella isolates. The test is classed as cell-based, Klebsiella pneumoniae, Klebsiella oxytoca. The note with it: limited clinical screen concentrations. How it is done: as §1
FIG. 2 outlines the work flow as exemplified herein. In brief, an isolate was retrieved from cryopreservation, plated onto blood agar to ensure purity, and inoculated into trypticase soy broth (TSB, described above) overnight to simulate biological fluids. A 1 mL aliquot of this overnight suspension was inoculated into Mueller-Hinton broth (MHB) [comprising about 300.0 g beef extract (dehydrated infusion from), about 17.5 g casein hydrolysate, about 1.5 g starch, reconstituted in about 1 L of water, pH 7.3±0.1 as measured and kept at 25° C.] and incubated at 37° C. to ensure bacteria were actively dividing. One aliquot was subjected to traditional microbroth dilution (MBD) susceptibility testing.
On the technique in general: Broth dilution looks for growth in wells or tubes with falling amounts of substance.

For test [3], the system named is Staphylococcus aureus. Nature of the test: Acoustic flow cytometry-assisted susceptibility test (FAST) of Staphylococcus aureus isolates. Type of test: cell-based. The arrangement: MIC dilution at which susceptibility-associated signature is observed by AFC: unit not given beside the values. How it is done:
The material and methods utilized are briefly outlined herein below. The method used was similar to that outlined in the earlier examples albeit adjusted to allow for 3 hour incubation of Staphylococcus aureus to account for longer doubling times of Staphylococcus aureus relative to K. pneumoniae used in the previous examples.
Events were acquired by forward scatter and BL1 (515 nm-545 nm) using the Attune with voltages and thresholding set as follows: Forward Scatter Voltage: 3050; Forward Scatter Threshold: 3×1000 AND; Side Scatter Voltage: 2950; Side Scatter Threshold: IGNORE; BL1 Voltage: 1500; BL1 Threshold: 1×1000 AND.
Nine mL of MHB was aliquoted into twelve, 50 mL Falcon tubes. Each tube was labelled with the required final test concentration of antibiotic. […] Tubes were transferred to a 35° C. incubator to pre-warm.
One 1 mL of the overnight bacterial suspension was transferred into a 1.5 mL microcentrifuge tube and centrifuge at 7,800×g for about 5 minutes. The supernatant was discarded, and the pellet re-suspended in 1 mL of 0.1 μm filtered HBSS. This step was optionally repeat.
About 900 μL of HBSS was dispended into three 1.5 mL tubes—two clear tubes and one amber tube. About 100 μL of the bacterial suspension was inoculated into the first tube (clear) and serially dilute to reach 1:1000 by the third tube (amber). About 1 μl of SYTO 9 (5 μM final concentration) was added to the third tube. The dye was incubated, protected from light, for at least 5 minutes (individual sample types were optionally required with longer incubations) and then the Stained Control on the Attune acoustic flow cytometer instrument was read
The event density (events/μL) from your stained control aliquots was used to calculate the inoculum volume required to produce a 5.5×10^5 bacteria mL-1 in 10 mL of MHB. For example, (400 events/A)/(10 mL×550000)=7.3 μL, rounded up to the closest 10 μL.
The required volume of bacterial suspension was added from the overnight culture into each 50 ml tube with 9 ml of preheated MHB. Optionally incubate with shaking and protected from light, at 100 RPM at 35° C. for 60 minutes.
MHB (0.1 μm filtered) was used to dilute the antibiotics in this preparation. About one aliquot of antibiotic was removed from the −20° C. freezer and equilibrated to room temperature by ambient heat exchange, and diluted to reach a range of working stock concentrations that were are ten times the desired test concentrations.
Once the 60-minute incubation of bacterial suspension was complete, about 1 mL of 10× antibiotic stocks were added to tubes containing bacterial suspensions to reach final desired test concentrations (1 ml antibiotic and total volume 10 ml). The 50 mL tubes were returned to the incubator and incubated, by shaking at 100 RPM at 35° C., for a further 3 hours.
After 3 hours, about 1 mL suspension was harvested from each tube and transferred to a 1.5 mL clear microcentrifuge tube (marked with the corresponding antibiotic concentration), then centrifuge at 7,800×g for 5 minutes. The supernatant discarded and the pellet resuspended in 1 mL of 0.1 μm filtered HBSS. This wash step was optionally repeated.
Using the computer connected to the Attune, new samples were created ready for the collection of data. That the following parameters were set: Sensitivity: High Sensitivity; Flow Rate: 25 μL/minute; Acquisition Volume: 125 μL; Events Collected: No less than 20,000 from all gates, Time: 1 minute.
About 899 μL HBSS was dispensed into one 1.5 mL amber tube per sample. About 100 μL of suspension per tube was added to achieve a 1 in 10 dilution. About 1 μl of SYTO 9 was added to each tube and the tube vortexed for no more than 2 seconds (over vortexing can lead to bacterial clustering and/or attachment to tube walls).
Samples were placed on the SIP and acquired, in technical triplicate, as per the parameters outlined above. […]

The subject of test [4] is Staphylococcus aureus. The experiment in a line: Broth microdilution (BMD) MIC of Staphylococcus aureus isolates. The test is classed as cell-based. The text has this:
The acoustic flow cytometry assisted method of the present invention was employed essentially as described in the previous working examples to determine susceptibility of Staphylococcus aureus to both cefoxitin and oxacillin. Susceptibility classification into S/NS and quantitative MIC values obtained using the acoustic flow cytometry assisted method were compared to results obtained using the conventional broth microdilution (BMD) method. Results are shown in Table 4 (Panels A and B) below and in FIGS. 9-12.

[5] abbreviates: K. pneumoniae ATCC 700603 (carbapenem susceptible control).
Where [6] appears, read: K. pneumoniae ATCC BAA1705 (carbapenem resistant control).
[7] abbreviates: S. aureus isolate ATCC 29213, MSSA.
Where [8] appears, read: S. aureus isolate W0096111, MSSA.
Setting [9] is: S. aureus isolate W0226111, MSSA.
Setting [10] is: S. aureus isolate W0236111, MSSA.
Where [11] appears, read: S. aureus isolate W0296111, MSSA.
[12] abbreviates: S. aureus isolate W0816111, MSSA.
[13] abbreviates: S. aureus isolate W0866111, MRSA.
Where [14] appears, read: S. aureus isolate W6496111, MSSA.
Setting [15] is: S. aureus isolate W9196111, MSSA.
Setting [16] is: S. aureus isolate W9346111, MRSA.
Setting [17] is: S. aureus isolate W . . . 6111, MRSA.
[18] abbreviates: S. aureus isolate WACC 98, MRSA.

Turning to `C[C@@H](O)[C@H]1C(=O)N2C(C(=O)O)=C(SCCN=CN)C[C@H]12` [Analytical Imipenem, imipenem], the MICFAST in test [1] (setting [5]) is reported as 1; in test [1] (setting [6]), greater than 16. Also, the MICBMD in test [2] (setting [5]) is 2; in test [2] (setting [6]) it was greater than 16.
Consider `CO[C@@]1(NC(=O)Cc2cccs2)C(=O)N2C(C(=O)O)=C(COC(N)=O)CS[C@@H]21` [Cefoxitin, cefoxitin], for which the “MIC dilution at which susceptibility-associated signature is observed by AFC” value was determined as 4 in test [3] (S. aureus ATCC 29213) and 128 in test [3] (S. aureus WACC 98). Moreover, the MIC (FAST) in test [3] (setting [7]) amounted to 2 µg/mL (≈ 4.68 µM); in test [3] (setting [8]) it was 4 µg/mL (≈ 9.36 µM); in test [3] (setting [9]), 2 µg/mL (≈ 4.68 µM); in test [3] (setting [10]) it was 4 µg/mL (≈ 9.36 µM); in test [3] (setting [11]), 4 µg/mL (≈ 9.36 µM); in test [3] (setting [12]), 2 µg/mL (≈ 4.68 µM). For the same molecule, the MIC (FAST) in test [3] (setting [13]) turned out to be 16 µg/mL (≈ 37.4 µM); in test [3] (setting [14]), 4 µg/mL (≈ 9.36 µM); in test [3] (setting [15]), 4 µg/mL (≈ 9.36 µM); in test [3] (setting [16]) it was 32 µg/mL (≈ 74.9 µM); in test [3] (setting [17]), 16 µg/mL (≈ 37.4 µM); in test [3] (setting [18]) it was 64 µg/mL (≈ 150 µM). Besides, the MIC (BMD) in test [4] (setting [7]) was determined as 4 µg/mL; in test [4] (setting [8]) it was 2 µg/mL; in test [4] (setting [9]) it was 2 µg/mL; in test [4] (setting [10]), 2 µg/mL; in test [4] (setting [11]), 4 µg/mL; in test [4] (setting [12]), 2 µg/mL. The MIC (BMD) in test [4] (setting [13]) came out at 32 µg/mL; in test [4] (setting [14]), 4 µg/mL; in test [4] (setting [15]), 2 µg/mL; in test [4] (setting [16]) it was 32 µg/mL; in test [4] (setting [17]) it was 16 µg/mL; in test [4] (setting [18]), 128 µg/mL.
